Source: US20250213649A1, “PEPTIDE HAVING ANTI-INFLAMMATORY AND ANTI-FIBROTIC ACTIVITIES AND USE THEREOF” (CAREGEN CO., LTD., priority 2022, published 2025)

Test system: BALB/c mice
Assay: BLM-induced pulmonary fibrosis model, Masson's Trichrome staining of lung tissue collagen
Format: in vivo
Conditions: BALB/c male mice, peptide 1 mg/mouse intranasal three times a week for 14 days, 21st day, Trichrome staining (FIG. 15a, 15b)
Procedure: As shown in [Table 6] below, 8-week-old BALB/c male mice were divided into 4 groups of 5 mice each. On the 1st day, a Bleomycin solution ([…]/50 μl/mouse) was administered through the oropharynx to carry out one time of induction with BLM. Then, from the 7th day, the peptide of Production Example 1 (1 mg/mouse) was administered intranasally three times a week for 14 days, and Pirfeninone (2 mg/mouse) for a positive control group was administered orally three times a week for 14 days. On the 21st day of the induction with BLM, mice were sacrificed to obtain the bronchoalveolar lavage fluid and the lung tissue, which were used in the next analysis.
The lung tissue obtained from mice subjected to the animal experiment was washed with PBS at room temperature and then fixed with 4% paraformaldehyde (PBS dilution). The fixed tissue was washed three times with PBS and dehydrated using an ethanol series having a concentration gradient of 70% to 100%. Next, the lung tissue sample was embedded and cut into slices having a thickness of 4 μm. The sliced specimen having a size of 4 μm, which was placed on a slide glass, was dewaxed and hydrated in an ethanol series having a concentration gradient. Staining was carried out for 10 minutes in each of Weigert's iron hematoxlin, a Biebrich scarlet-acid fuchsin solution, a Phosphomolybdic-phosphotungstic acid solution, and an aniline blue solution. […]

KYLLVHRPYYRR [peptide of Production Example 1]
degree of collagen deposition in the lung tissue: significantly reduced
